Ki data for four compounds are collected here from BindingDB's records for doi:10.1016/j.bmcl.2005.11.067 (Merck Sharp and Dohme Research Laboratories, 2006).

In general, Ki refers to a measure of affinity in units of concentration, obtained from inhibition or displacement. A higher Ki goes with weaker binding.

Structures are written as SMILES.

The target of this assay is T1, Alpha-1A/Alpha-1B/Alpha-1D adrenergic receptor (Rattus norvegicus, UniProt P15823+P23944+P43140).
T1 sequence (P15823 whole entry): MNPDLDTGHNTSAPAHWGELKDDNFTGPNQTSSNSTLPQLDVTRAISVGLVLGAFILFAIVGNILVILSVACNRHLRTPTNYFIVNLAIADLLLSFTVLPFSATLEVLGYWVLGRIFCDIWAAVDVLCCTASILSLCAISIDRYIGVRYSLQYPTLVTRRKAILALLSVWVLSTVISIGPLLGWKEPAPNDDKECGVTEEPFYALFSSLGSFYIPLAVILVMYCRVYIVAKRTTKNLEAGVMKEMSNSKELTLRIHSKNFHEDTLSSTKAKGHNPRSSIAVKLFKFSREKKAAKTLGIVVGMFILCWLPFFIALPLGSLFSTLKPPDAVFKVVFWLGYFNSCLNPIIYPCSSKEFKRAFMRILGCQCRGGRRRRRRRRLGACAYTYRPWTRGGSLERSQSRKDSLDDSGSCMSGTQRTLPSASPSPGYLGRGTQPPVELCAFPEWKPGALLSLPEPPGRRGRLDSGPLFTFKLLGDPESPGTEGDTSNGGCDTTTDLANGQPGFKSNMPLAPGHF
T1 sequence (P43140 whole entry): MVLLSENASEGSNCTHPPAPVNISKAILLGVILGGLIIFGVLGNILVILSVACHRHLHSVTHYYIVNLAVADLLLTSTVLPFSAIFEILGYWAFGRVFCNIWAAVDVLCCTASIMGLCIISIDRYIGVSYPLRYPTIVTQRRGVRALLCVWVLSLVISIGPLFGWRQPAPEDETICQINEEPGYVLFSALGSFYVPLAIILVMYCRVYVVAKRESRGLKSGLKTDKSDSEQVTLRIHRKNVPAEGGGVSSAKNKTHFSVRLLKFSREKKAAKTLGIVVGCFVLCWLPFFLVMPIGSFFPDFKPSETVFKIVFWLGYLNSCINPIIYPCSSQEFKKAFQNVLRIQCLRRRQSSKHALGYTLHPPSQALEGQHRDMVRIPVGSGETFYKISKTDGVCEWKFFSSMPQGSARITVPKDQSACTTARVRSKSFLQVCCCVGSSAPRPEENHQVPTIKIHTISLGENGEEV
T1 sequence (P23944 whole entry): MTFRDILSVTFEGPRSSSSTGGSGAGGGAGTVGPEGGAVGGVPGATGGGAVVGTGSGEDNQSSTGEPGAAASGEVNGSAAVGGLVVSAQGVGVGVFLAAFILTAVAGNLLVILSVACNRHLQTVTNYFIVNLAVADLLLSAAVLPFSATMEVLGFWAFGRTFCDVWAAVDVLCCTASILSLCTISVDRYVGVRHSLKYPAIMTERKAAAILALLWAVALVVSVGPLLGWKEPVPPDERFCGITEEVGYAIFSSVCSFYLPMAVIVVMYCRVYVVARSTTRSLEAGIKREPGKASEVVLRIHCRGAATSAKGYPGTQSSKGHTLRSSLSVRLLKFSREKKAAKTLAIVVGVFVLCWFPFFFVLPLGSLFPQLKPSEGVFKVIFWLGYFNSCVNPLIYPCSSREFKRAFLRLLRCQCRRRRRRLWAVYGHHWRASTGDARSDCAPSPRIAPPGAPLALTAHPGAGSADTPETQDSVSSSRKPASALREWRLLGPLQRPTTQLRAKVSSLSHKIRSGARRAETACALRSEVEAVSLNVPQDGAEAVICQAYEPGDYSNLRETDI
Description: Displacement of [3H]prazosin from alpha-1 adrenergic receptor in rat cortex. Background: In a radioligand displacement assay an active substance lowers the binding of a labelled ligand.
For the compound `CC(C)(CCCN1CCCC(c2cnco2)C1)S(=O)(=O)c1ccccc1` (centres undefined), the Ki is above 4 µM. In the case of `CCOC(=O)[C@@H]1CCCN(CCCC(C)(C)S(=O)(=O)c2ccccc2)C1` it was above 4 µM; in that of `CC(C)(CCCN1CCCC(c2ccccc2)C1)S(=O)(=O)c1ccccc1` (centres undefined), 0.54 µM. Consider `CC(C)(CCCN1CCCC(C(F)(F)F)C1)S(=O)(=O)c1ccccc1` (centres undefined), for which the Ki was above 4 µM.
